# According to patent US8580814B2, “Methods of using (+)-1,4-dihydro-7-[(3S,4S)-3-methoxy-4-(methylamino)-1-pyrrolidinyl]-4- oxo-1-(2-thiazolyl)-1,8-naphthyridine-3-carboxylic acid for treatment of cancer” (priority 2006, dated 2013):
# Marks after values point to notes of the source that are not given here.
# Assays:
# [1] = system: MO59J (DNAPKcs(−/−)) vs MO59K (DNAPKCs(+/+)); experiment: MTT assay, sensitization (DNAPKcs(−/−)); assay type: cell-based
# Method: (§1) Cells were then incubated with 5% MTT for 1-2 hours and lysed. MTT was colorimetrically read at 570 nm and EC50's were determined using linear regression analysis.
# (§2) Sensitization was carried out with various chemical treatments.
# [2] = system: HCT-116 cells treated with 2 mM caffeine; experiment: MTT assay, sensitization (caffeine); assay type: cell-based; conditions: 2 mM caffeine pre-treated for 16 hours, compound 72 hours
# Method: as §1, §2
# [3] = system: LM3-Jck human malignant lymphoma tumor; experiment: LM3-Jck xenograft model; assay type: in vivo, nude mice; conditions: for IR (%) (tumor inhibition rate): LM3-JcK, q7d X3, IV; for Survival Ratio: nude, mouse, in vivo, iv, 21 days
# Method: LM3-Jck human malignant lymphoma tumor lobes (2-3 mm square) were transplanted subcutaneously into nude mice. Tumors were allowed to grow to approximately 7-14 mm in diameter. […] Acceptable toxicity was defined as a mean group weight loss of 30% or less and not more than one toxic death among 6 treated animals. Anti-tumor activities of the drugs were assessed 21 days after the start of administration.
# HCT-116 cells = experiment: Repair of DNA damage (gH2AX foci) in the absence of ATM and ATR; assay type: cell-based; conditions: for 6 h with 2 mM caffeine, washout, 16 hours recovery
# Method: Compound was then removed and cells were allowed to recover for 16 hours. Cells were analyzed for gH2AX foci before and after drug washout.
# clinical = conditions: human, in vivo
# Method: SNS-595 was administered to patients with advanced solid cancers as an IV infusion over 10 minutes on 2 schedules. In the first schedule (A), a weekly dose of SNS-595 was administered for three weeks followed by at least 7 days off (qwk×3). In the second schedule (B), a dose of SNS-595 was administered once every three weeks (q3wk).
# In both schedules, the starting dose of SNS-595 was 3 mg/m^2, and doses were escalated by sequential cohorts of 3. The doses were doubled until the first related adverse event at or above Grade 2 or until the first abnormal lab value. The doses were then escalated by a modified Fibonacci schema.
# For patients dosed according to schedule A, PK samples were collected on treatment Days 1 and 15 and were assayed using noncompartmental analysis. Plasma SNS-595 concentrations were determined using a validated LC-MS/MS assay. […] FIG. 1 depicts the plasma concentrations of SNS-595 over time among the various patient cohorts.
# For patients dosed according to schedule B, pharmacokinetic parameters were evaluated in 36 patients (21 heavily pretreated and 15 minimally pretreated) after a single dose of 3 to 75 mg/m^2.
# In study A, pharmacokinetics were assessed on Days 1 and 15 (after the first and third doses).
# [4] = system: advanced or refractory acute leukemias; experiment: Peripheral blasts in patients with advanced or refractory acute leukemias; assay type: in vivo, human; conditions: six patients distributed across all dosing groups of Table 15, following cycle 1
# Method: (§3) SNS-595 was administered to patients with advanced or refractory acute leukemias as a slow IV push. Diagnoses included AML (19 patients) and ALL (2 patients). All patients had disease refractory to or relapsed from prior therapy (median 3 prior regimens (range 1-6)). A total of 21 patients (9 female and 12 male; median age=64 yrs, range 21-80) were treated in five cohorts using two schedules. In the first schedule (A), a weekly dose of SNS-595 was administered for three weeks followed by 7 days off (qwk×3). In the second schedule (B), a dose of SNS-595 was administered twice a week for two weeks (biwk×2). The cycle duration, including days off, was 28 days for both schedules. […] Additional cycles were permitted if patients achieved stable disease or better. The starting dose was 18 mg/m^2 on schedule A and 9 mg/m^2 on schedule B, and dosage was escalated by cohort. Cohorts of 3-6 patients were accrued to doses using a modified Fibonacci sequence.
# [5] = Safety in patients with advanced or refractory acute leukemias; assay type: in vivo, human
# Method: as §3
# HCT-116 = experiment: Timing of apoptosis (caspase-3 activation); assay type: cell-based; conditions: Cell Line HCT-116; dosed at 30 fold above the EC50 for cytotoxicity
compound,measurement,setting,value
"CN[C@H]1CN(c2ccc3c(=O)c(C(=O)O)cn(-c4nccs4)c3n2)C[C@@H]1OC [SNS-595, (+)-1,4-dihydro-7-[(3S,4S)-3-methoxy-4-(methylamino)-1-pyrrolidinyl]-4-oxo-1-(2-thiazolyl)-1,8-naphthyridine-3-carboxylic acid]","sensitization, PIKK dependence",[1]; ATM/ATR or DNAPK activity inhibited or diminished,only when DNAPKcs activity is diminished
same,"Sensitization, fold decrease in the EC50 for cytotoxicity (MTT): DNAPKcs(−/−)","[1]; MO59J (DNAPKcs(−/−)) vs MO59K (DNAPKCs(+/+)), compound 72 hours",10 fold
same,"Sensitization, fold decrease in the EC50 for cytotoxicity (MTT): Caffeine",[2],0.5 fold
same,antitumor activity against LM-3 Jck malignant lymphoma,[3]; 20 and 25 mg/kg,strong antitumor activity with complete tumor regressions
same,IR (%) (tumor inhibition rate),[3]; 20 mg/kg,98.9* %
same,IR (%) (tumor inhibition rate),[3]; 25 mg/kg,98.5* %
same,Survival Ratio,[3]; 20 mg/kg,6/6
same,Survival Ratio,[3]; 25 mg/kg,6/6
same,repair of induced DNA damage (gH2AX foci) in the absence of ATM and ATR,HCT-116 cells,readily repaired
same,AUC (area under curve) versus dose,clinical,increased proportionally with dose
same,"CL, averaged",clinical,2 L/hr/m^2
same,"CL, volume of distribution and T1/2 across doses",clinical,remained unchanged
same,Clearance (CL),clinical,2.2 L/hr/m2
same,"Clearance (CL), range",clinical,1.0-3.8 L/hr/m^2
same,Exposure,clinical,1.6 to 15 µg·h/mL
same,"T ½, Average",clinical,21.3 ± 5.3 h
same,"T ½, Range",clinical,13 to 56 h
same,"Vss, averaged",clinical,53 L/m^2
same,"clearance (CL), averaged",clinical,2 L/hr/m^2
same,drug dependent alterations in pharmacokinetic parameters,clinical,No evidence of drug dependent alterations
same,exposure,clinical,1.1 to 46 µg·h/mL
same,"volume of distribution (Vss), averaged",clinical,48 L/m^2
same,AUCinf,clinical; 3 mg/m2,1.14 ± 0.26 µg·h/mL
same,T ½,clinical; 3 mg/m2,16.4 ± 4.8 h
same,AUC(0-inf),"clinical; 3 mg/m2, AUCinf",1710 ± 200 ng·h/mL
same,half-life,"clinical; 3 mg/m2, T ½",1400 ± 432 min
same,AUCinf,clinical; 6 mg/m2,3.04 ± 0.32 µg·h/mL
same,Cmax,clinical; 6 mg/m2,347 ± 220 ng/mL
same,T ½,clinical; 6 mg/m2,22.2 ± 1.9 h
same,AUC(0-inf),"clinical; 6 mg/m2, AUCinf",2090 ± 530 ng·h/mL
same,Cmax,"clinical; 6 mg/m2, Cmax",531 ± 280 ng/mL
same,half-life,"clinical; 6 mg/m2, T ½",810 ± 132 min
same,AUCinf,clinical; 12 mg/m2,6.32 ± 0.22 µg·h/mL
same,Cmax,clinical; 12 mg/m2,2250 ± 1070 ng/mL
same,T ½,clinical; 12 mg/m2,18.0 ± 4.1 h
same,AUC(0-inf),"clinical; 12 mg/m2, AUCinf",6810 ± 1680 ng·h/mL
same,Cmax,"clinical; 12 mg/m2, Cmax",1840 ± 2700 ng/mL
same,half-life,"clinical; 12 mg/m2, T ½",1190 ± 318 min
same,T ½,clinical; 15 mg/m2,26.4 ± 15.2 h
same,Vssobs,clinical; 15 mg/m2,43.8 ± 7.90 L/m^2
same,AUC(0-inf),"clinical; 15 mg/m2, AUCinf",10800 ± 4700 ng·h/mL
same,Cmax,"clinical; 15 mg/m2, Cmax",865 ± 318 ng/mL
same,Vssobs,clinical; 18 mg/m2,47.19 ± 8.06 L/m^2
same,AUC(0-inf),"clinical; 18 mg/m2, AUCinf",8500 ± 2860 ng·h/mL
same,Cmax,"clinical; 18 mg/m2, Cmax",1690 ± 830 ng/mL
same,half-life,"clinical; 18 mg/m2, T ½",948 ± 252 min
same,AUCinf,clinical; 24 mg/m2,12.63 ± 0.86 µg·h/mL
same,T ½,clinical; 24 mg/m2,15.7 ± 3.2 h
same,AUC(0-inf),"clinical; 24 mg/m2, AUCinf",15200 ng·h/mL
same,half-life,"clinical; 24 mg/m2, T ½",1450 min
same,T ½,clinical; 36 mg/m2,22.5 ± 4.2 h
same,Vssobs,clinical; 36 mg/m2,61.4 ± 12.8 L/m^2
same,AUC(0-inf),"clinical; 36 mg/m2, AUCinf",18000 ± 730 ng·h/mL
same,Cmax,"clinical; 36 mg/m2, Cmax",3380 ± 1920 ng/mL
same,T ½,clinical; 48 mg/m2,26.4 ± 13.1 h
same,Vssobs,clinical; 48 mg/m2,58.8 ± 14.5 L/m^2
same,AUC(0-inf),"clinical; 48 mg/m2, AUCinf",29400 ± 11300 ng·h/mL
same,Cmax,"clinical; 48 mg/m2, Cmax",3080 ± 1920 ng/mL
same,T ½,clinical; 60 mg/m2,25.0 ± 17.9 h
same,Vssobs,clinical; 60 mg/m2,48.0 ± 7.3 L/m^2
same,AUC(0-inf),"clinical; 60 mg/m2, AUCinf",40700 ± 23700 ng·h/mL
same,Cmax,"clinical; 60 mg/m2, Cmax",3860 ± 1680 ng/mL
same,T ½,clinical; 75 mg/m2,25.0 ± 4.9 h
same,Vssobs,clinical; 75 mg/m2,56.3 ± 9.4 L/m^2
same,AUC(0-inf),"clinical; 75 mg/m2, AUCinf",46100 ± 6120 ng·h/mL
same,Cmax,"clinical; 75 mg/m2, Cmax",5050 ± 1720 ng/mL
same,half-life,"clinical; T1/2, averaged",1140 min
same,half-life,clinical; T1/2 ± SD,1320 ± 660 min
same,half-life,"clinical; T ½, Average",1110 ± 276 min
same,half-life,"clinical; T ½, Range",600 to 1980 min
same,half-life,clinical; terminal half-life,~1140 min
same,half-life,clinical; terminal half-life (T1/2),~1260 min
same,half-life,"clinical; terminal half-life (T1/2), range",780 to 2940 min
same,reductions in peripheral blasts,[4],greater than 50%
same,Grade 4 neutropenic fever,[5]; acute leukemia patients,only one patient
same,Non-dose limiting toxicities,[5]; acute leukemia patients,"nausea/vomiting, diarrhea, and mucositis"
same,"SAE possibly related to study drug: Infection, CTCAE v3.0 Grade","[5]; biwk x2, 1 patient",Grade 3
same,"SAE possibly related to study drug: Neutropenic Fevers, CTCAE v3.0 Grade","[5]; biwk x2, 1 patient",Grade 4
same,"SAE possibly related to study drug: Infection with Neutropenia, CTCAE v3.0 Grade","[5]; qwk x3, 1 patient",Grade 3
same,"SAE possibly related to study drug: Pneumonia with Neutropenia, CTCAE v3.0 Grade","[5]; qwk x3, 1 patient",Grade 3
same,dose limiting toxicities (DLTs),[5]; up to 13.5 mg/m^2 on the biwk×2 schedule,No dose limiting toxicities
same,dose limiting toxicities (DLTs),[5]; up to 27 mg/m^2 on the qwk×3 schedule,No dose limiting toxicities
same,Timing of apoptosis: fraction of cell cycle to achieve 50% maximal caspase-3 activation,HCT-116,0.4
